Laboratory results from the supplement of paper PMC10307832.

Assays:
Assay in all cases: relative viability (nuclei count vs DMSO), 5 days (fraction); higher = more cells survive
FH535 + Bortezomib = compound: CC1=C(C=CC(=C1)[N+](=O)[O-])NS(=O)(=O)C2=C(C=CC(=C2)Cl)Cl [FH535] + CC(C)C[C@H](NC(=O)[C@H](Cc1ccccc1)NC(=O)c1cnccn1)B(O)O [Bortezomib] (partner 0.002 µM)
Method in brief: (§1)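 Dosing by pin tool came one day after lung cancer cell lines were seeded in 1536-well plates, using either one drug or a fixed anchor-drug dose plus five library-drug doses (not always all listed) in √10 steps. After 5 days, nuclei were counted on 4× images. Relative viability is treated-well nuclei count divided by vehicle-well nuclei count, and values are medians of duplicate plates.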

FH535 + Luminespib = compound: CC1=C(C=CC(=C1)[N+](=O)[O-])NS(=O)(=O)C2=C(C=CC(=C2)Cl)Cl [FH535] + CCNC(=O)c1noc(-c2cc(C(C)C)c(O)cc2O)c1-c1ccc(CN2CCOCC2)cc1 [Luminespib] (partner 0.01 µM)
Method in brief: as §1

FH535 + Foretinib = compound: CC1=C(C=CC(=C1)[N+](=O)[O-])NS(=O)(=O)C2=C(C=CC(=C2)Cl)Cl [FH535] + COc1cc2c(Oc3ccc(NC(=O)C4(C(=O)Nc5ccc(F)cc5)CC4)cc3F)ccnc2cc1OCCCN1CCOCC1 [Foretinib] (partner 0.25 µM)
Method in brief: as §1

FH535 + Tozasertib = compound: CC1=C(C=CC(=C1)[N+](=O)[O-])NS(=O)(=O)C2=C(C=CC(=C2)Cl)Cl [FH535] + Cc1cc(Nc2cc(N3CCN(C)CC3)nc(Sc3ccc(NC(=O)C4CC4)cc3)n2)n[nH]1 [Tozasertib] (partner 0.1 µM)
Method in brief: as §1

FH535 + Vorinostat = compound: CC1=C(C=CC(=C1)[N+](=O)[O-])NS(=O)(=O)C2=C(C=CC(=C2)Cl)Cl [FH535] + O=C(CCCCCCC(=O)Nc1ccccc1)NO [Vorinostat] (partner 1 µM)
Method in brief: as §1

| Cell Line | relative viability (FH535 + Bortezomib; first compound 0.04 µM) | relative viability (FH535 + Bortezomib; first compound 0.1265 µM) | relative viability (FH535 + Bortezomib; first compound 0.4 µM) | relative viability (FH535 + Bortezomib; first compound 1.265 µM) | relative viability (FH535 + Luminespib; first compound 0.04 µM) | relative viability (FH535 + Luminespib; first compound 0.1265 µM) | relative viability (FH535 + Luminespib; first compound 0.4 µM) | relative viability (FH535 + Luminespib; first compound 1.265 µM) | relative viability (FH535 + Foretinib; first compound 0.04 µM) | relative viability (FH535 + Foretinib; first compound 0.1265 µM) | relative viability (FH535 + Foretinib; first compound 0.4 µM) | relative viability (FH535 + Foretinib; first compound 1.265 µM) | relative viability (FH535 + Tozasertib; first compound 0.04 µM) | relative viability (FH535 + Tozasertib; first compound 0.1265 µM) | relative viability (FH535 + Tozasertib; first compound 0.4 µM) | relative viability (FH535 + Tozasertib; first compound 1.265 µM) | relative viability (FH535 + Vorinostat; first compound 0.04 µM) | relative viability (FH535 + Vorinostat; first compound 0.1265 µM) | relative viability (FH535 + Vorinostat; first compound 0.4 µM) | relative viability (FH535 + Vorinostat; first compound 1.265 µM) |
| --- | --- | --- | --- | --- | --- | --- | --- | --- | --- | --- | --- | --- | --- | --- | --- | --- | --- | --- | --- | --- |
| CAL-12T | 0.846 | 0.936 | 0.626 | 0.268 | 0.331 | 0.496 | 0.727 | 0.536 | 1.15 | 1.11 | 1.04 | 0.577 | 0.288 | 0.324 | 0.243 | 0.212 | 0.562 | 0.927 | 0.802 | 0.492 |
| COR-L23 | 0.845 | 1.04 | 0.816 | 0.587 | 0.73 | 0.612 | 0.5 | 0.435 | 0.936 | 0.818 | 0.781 | 0.517 | 0.183 | 0.17 | 0.185 | 0.167 | 0.442 | 0.462 | 0.422 | 0.343 |
| COR-L 105 | 0.804 | 0.822 | 0.653 | 0.675 | 0.499 | 0.952 | 0.738 | 0.671 | 0.936 | 1.25 | 0.794 | 1.02 | 0.359 | 0.339 | 0.337 | 0.304 | 0.793 | 0.857 | 0.848 | 0.876 |
| ChaGo-K-1 | 0.915 | 1.24 | 0.95 | 0.589 | 0.653 | 0.665 | 0.55 | 0.576 | 0.916 | 1.05 | 0.967 | 0.722 | 0.225 | 0.236 | 0.216 | 0.202 | 0.469 | 0.732 | 0.693 | 0.59 |
